The record followed here is patent publication US20220169598A1, “HALOGENATED PHENYLSULFONAMIDE HYDROXAMIC ACID COMPOUNDS, COMPOSITIONS AND USES THEREOF AS SELECTIVE HDAC6 INHIBITORS” (2681603 ONTARIO INC., priority 2019, published 2022).

By IC50 is commonly meant the concentration needed to halve the response being measured.

The subject of one data set is HeLa cells. Briefly: Immunofluorescence analysis of α-tubulin and histone H3 acetylation. To be noted: 6 h treatment. It counts as cell-based. An excerpt: Similar analysis is shown for exemplary compound I-34 in FIG. 19.
A short description of data set [1]: Kinetic solubility by analytical HPLC. To be noted: PBS with 5% (v/v) DMSO, aqueous with cosolvent or surfactant or cyclodextrin, kinetic from dmso stock; PBS + 5% DMSO; initial concentration 300 μM; read-out: Saturation Concentration. Format: physicochemical. As for the experimental part: The initial concentration of each exemplary compound was 300 μM.
The next data set concerns panel of 97 kinases. Kind of data set: Kinome screen. It counts as biochemical. The settings on record: kinase screen.
For another data set, the system named is K562. Kind of data set: Cytotoxicity in cell lines. It counts as cell-based. To be noted: Homo sapiens. The procedure: (§1) The cytotoxicity of exemplary compounds of the application was tested in multiple cell lines including MV-4-11, MOLM-13, MCF-7, MRC9, K562 and MM.1S. The therapeutic index was evaluated by determining the toxicity of the exemplary compounds in healthy cell lines including fibroblasts and HUVEC.

The test system of another data set is MOLM-13. Briefly: Cytotoxicity in cell lines. The settings on record: Homo sapiens. Format: cell-based. As for the experimental part:
as §1

The next data set has as its system MV-4-11. Briefly: Cytotoxicity in cell lines. The settings on record: Homo sapiens. It counts as cell-based. As for the experimental part:
as §1

For a further data set, the system named is HUVEC. Kind of data set: Toxicity in healthy cell lines. It counts as cell-based. To be noted: Homo sapiens, read-out: IC50 HUVEC. As for the experimental part:
as §1

The next data set concerns Normal Human Fibroblast. Kind of data set: Toxicity in healthy cell lines. It counts as cell-based. To be noted: read-out: IC50 Normal Human Fibroblast. As for the experimental part: as §1
For a further data set, the system named is MM.1S. Kind of data set: Cytotoxicity in cell lines. The settings on record: Homo sapiens, MM1.S; Table 4. Format: cell-based. The procedure: as §1
In a further data set the test system is MRC9. Briefly: Cytotoxicity in cell lines. The settings on record: Table 5. Format: cell-based. The procedure: as §1
In another data set the target is T1, HDAC6 (Homo sapiens, UniProt Q9UBN7).
T1 sequence (Q9UBN7 1-1215): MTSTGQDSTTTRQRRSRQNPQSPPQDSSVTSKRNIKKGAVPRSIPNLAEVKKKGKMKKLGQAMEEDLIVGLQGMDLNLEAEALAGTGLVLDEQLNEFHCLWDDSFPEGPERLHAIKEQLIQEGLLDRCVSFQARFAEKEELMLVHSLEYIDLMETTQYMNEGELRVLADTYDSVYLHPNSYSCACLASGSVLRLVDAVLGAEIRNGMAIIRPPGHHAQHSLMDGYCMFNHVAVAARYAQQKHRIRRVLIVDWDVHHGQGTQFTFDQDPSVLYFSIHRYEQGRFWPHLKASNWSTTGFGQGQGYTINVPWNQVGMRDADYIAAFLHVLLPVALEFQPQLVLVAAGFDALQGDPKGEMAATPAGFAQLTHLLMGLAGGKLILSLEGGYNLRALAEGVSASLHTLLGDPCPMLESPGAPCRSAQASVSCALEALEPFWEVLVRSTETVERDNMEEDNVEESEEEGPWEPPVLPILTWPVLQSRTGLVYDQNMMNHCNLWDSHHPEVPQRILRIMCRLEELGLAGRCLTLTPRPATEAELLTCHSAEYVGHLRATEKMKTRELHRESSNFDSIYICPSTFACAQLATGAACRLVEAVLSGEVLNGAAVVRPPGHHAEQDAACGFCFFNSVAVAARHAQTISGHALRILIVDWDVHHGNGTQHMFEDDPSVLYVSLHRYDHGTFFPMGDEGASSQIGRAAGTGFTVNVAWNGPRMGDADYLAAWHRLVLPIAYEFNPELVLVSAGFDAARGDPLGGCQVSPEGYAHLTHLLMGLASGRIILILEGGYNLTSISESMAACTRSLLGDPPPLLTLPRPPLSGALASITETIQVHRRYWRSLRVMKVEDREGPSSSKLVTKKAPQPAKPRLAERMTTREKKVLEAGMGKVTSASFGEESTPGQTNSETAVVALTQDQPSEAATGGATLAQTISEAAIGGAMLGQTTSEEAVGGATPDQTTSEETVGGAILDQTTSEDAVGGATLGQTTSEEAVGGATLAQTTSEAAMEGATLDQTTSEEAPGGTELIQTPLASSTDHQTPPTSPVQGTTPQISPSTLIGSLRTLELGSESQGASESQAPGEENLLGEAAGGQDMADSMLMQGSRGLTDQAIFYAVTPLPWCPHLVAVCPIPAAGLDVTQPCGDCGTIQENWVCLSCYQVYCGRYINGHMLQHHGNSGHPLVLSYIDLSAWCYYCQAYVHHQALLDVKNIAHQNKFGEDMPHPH
Briefly: in vitro activity-based HDAC assay. It counts as biochemical. To be noted: ranges given; read-out: IC50 for HDAC6. As for the experimental part: The exemplary compounds of Formula I and structurally related compounds were synthesized to assess their structure-activity relationship. […] The IC50 values for each exemplary compound were used to calculate the selectivity of the exemplary compounds for Formula I to HDAC6. The selectivity of each exemplary compound for HDAC6 was determined from examining the potency of HDAC6 in relation to the highest binding affinity of the other HDAC isoforms tested.

[2] abbreviates: K562, Table 4, read-out: IC50 K562.
Where [3] appears, read: MOLM-13, Table 4, read-out: IC50 MOLM-13.
Setting [4] is: MV4-11, Table 4, read-out: IC50 MV-411.
Where [5] appears, read: MV4-11, Table 5, read-out: IC50 MV-411.
Where [6] appears, read: K562, Table 5, read-out: IC50 K562.
Setting [7] is: MOLM-13, Table 5, read-out: IC50 MOLM-13.

Molecules are shown by their SMILES. Where two headings read alike, the source gives them in different places. Some results are limits rather than exact numbers.

Turning to `O=C(CCCCCCNC(=O)c1cnc(N(c2ccccc2)c2ccccc2Cl)nc1)NO` [Citarinostat, reference compound], the “effect on α-tubulin acetylation (immunofluorescence)” value in the data set on HeLa cells is on record as “no preferential acetylation on α-tubulin until high concentrations”.
With `CC(C)N(Cc1ccc(C(=O)NO)cc1)S(=O)(=O)c1cc(F)c(F)c(F)c1F` [Compound I-12, N-hydroxy-4-((2,3,4,5-tetrafluoro-N-isopropylphenylsulfonamido)methyl)benzamide], in [1], the solubility kinetic is 74.5 ± 3 µM. Besides, in the data set on panel of 97 kinases, the “inhibitory activity on a panel of 97 kinases” value is “limited to no inhibitory activity”.
Take `O=C(NO)c1ccc(CN(Cc2cccnc2F)S(=O)(=O)c2cc(F)c(F)c(F)c2F)cc1` [Compound I-19, N-hydroxy-4-((2,3,4,5-tetrafluoro-N-((2-fluoropyridin-3-yl)methyl)phenylsulfonamido)methyl)benzamide]: the half-inhibitory concentration (IC50) in the data set on K562 (setting [2]) turned out to be 5600 nM.
With `O=C(NO)c1ccc(CN(CCc2ccccc2F)S(=O)(=O)c2cc(F)c(F)c(F)c2F)cc1` [Compound I-21, N-hydroxy-4-((2,3,4,5-tetrafluoro-N-(2-fluorophenethyl)phenylsulfonamido)methyl)benzamide], the IC50 is 7900 nM with K562 (setting [2]), 1700 nM in the data set with MOLM-13 (setting [3]) and 478 nM in the data set with MV-4-11 (setting [4]).
As for `O=C(NO)c1ccc(CN(Cc2cccnc2)S(=O)(=O)c2cc(F)c(F)c(F)c2F)c(F)c1` [Compound I-30, 3-fluoro-N-hydroxy-4-((2,3,4,5-tetrafluoro-N-(pyridin-3-ylmethyl)phenylsulfonamido)methyl)benzamide], the solubility kinetic in data set [1] worked out at 46 ± 4.4 µM. In addition, the IC50 came out at 9300 nM in the data set with K562 (setting [2]); 2900 nM with MOLM-13 (setting [3]); 607 nM in the data set with MV-4-11 (setting [4]); 4100 nM in the data set with HUVEC (Table 4, healthy cells); 6100 nM in the data set on Normal Human Fibroblast (Table 4, healthy cells).
On to `O=C(NO)c1ccc(CN(Cc2cccnc2F)S(=O)(=O)c2cc(F)c(F)c(F)c2F)c(F)c1` [Compound I-32, 3-fluoro-N-hydroxy-4-((2,3,4,5-tetrafluoro-N-((2-fluoropyridin-3-yl)methyl)phenylsulfonamido)methyl)benzamide], for which the IC50 was found to be 8600 nM in the data set on K562 (setting [2]); 1980 nM in the data set with MOLM-13 (setting [3]); 389 nM with MV-4-11 (setting [4]); 5100 nM in the data set on HUVEC (Table 4, healthy cells); 7100 nM with Normal Human Fibroblast (Table 4, healthy cells).
With `O=C(NO)c1ccc(CN(C2CCCC2)S(=O)(=O)c2cc(F)c(F)c(F)c2F)cc1` [Compound I-51, 4-(((N-cyclopentyl-2,3,4,5-tetrafluorophenyl)sulfonamido)methyl)-N-hydroxybenzamide], the figures for the IC50 in the data set with MM.1S and with MV-4-11 (setting [4]) were 2700 nM and 2800 nM, respectively.
Taken in the same sequence, the figures for `CC(C)N(Cc1cc(F)c(C(=O)NO)cc1F)S(=O)(=O)c1cc(F)c(F)c(F)c1F` [Compound I-52, 2,5-difluoro-N-hydroxy-4-(((2,3,4,5-tetrafluoro-N-isopropylphenyl)sulfonamido)methyl)benzamide] were 400 nM and 1000 nM.
Turning to `CC(C)CN(Cc1ccc(C(=O)NO)cc1)S(=O)(=O)c1cc(F)c(F)c(F)c1F` [Compound I-54, N-hydroxy-4-(((2,3,4,5-tetrafluoro-N-isobutylphenyl)sulfonamido)methyl)benzamide], the values for the IC50 in the data set with MM.1S and with MV-4-11 (setting [4]) were 700 nM and 500 nM, respectively.
For `O=C(/C=C/c1ccc(CN(C2CC2)S(=O)(=O)c2c(F)c(F)c(F)c(F)c2F)cc1)NO` [Compound I-56], in the data set on MRC9, the IC50 is > 50000 nM.
For the compound `O=C(/C=C/c1ccc(CN(C2CCCC2)S(=O)(=O)c2c(F)c(F)c(F)c(F)c2F)cc1)NO` [Compound I-57, (E)-3-(4-((N-cyclopentyl-2,3,4,5,6-pentafluorophenylsulfonamido)methy)phenyl)-N-hydroxyacrylamide], the IC50 was 10 to 30 nM at HDAC6 and > 50000 nM in the data set with MRC9.
`O=C(/C=C/c1ccc(CN(c2ccccc2)S(=O)(=O)c2cc(F)c(F)c(F)c2F)cc1)NO` [Compound I-66, (E)-N-hydroxy-3-(4-((2,3,4,5-tetrafluoro-N-phenylphenylsulfonamido)methyl)phenyl)acrylamide]: the 50% inhibitory concentration (IC50) on HDAC6 was 10 to 30 nM; in the data set on MV-4-11 (setting [5]), 840 nM.
The like results for `CC(C)N(Cc1ccc(CC(=O)NO)cc1)S(=O)(=O)c1cc(F)c(F)c(F)c1F` [Compound I-70, N-hydroxy-2-(4-((2,3,4,5-tetrafluoro-N-isopropylphenylsulfonamido)methyl)phenyl)acetamide] were, in that order, 100 to 150 nM and 2500 nM.
As for `COc1cc(/C=C/C(=O)NO)ccc1CN(Cc1cccnc1F)S(=O)(=O)c1cc(F)c(F)c(F)c1F` [Compound I-77], the figures for the IC50 in the data set on K562 (setting [6]), in the data set on MOLM-13 (setting [7]) and with MV-4-11 (setting [5]) were 72800 nM, 3300 nM and 1100 nM, respectively.
`O=C(/C=C/c1ccc(CN(Cc2cccnc2F)S(=O)(=O)c2cc(F)c(F)c(F)c2F)c(C(F)(F)F)c1)NO` [Compound I-79]: the IC50 in the data set with K562 (setting [6]) was determined as 25900 nM; with MOLM-13 (setting [7]) it was 7900 nM; in the data set on MV-4-11 (setting [5]) it was 329 nM.
The like results for `O=C(/C=C/c1ccc(CN(Cc2cccnc2)S(=O)(=O)c2cc(F)c(F)c(F)c2F)c(C(F)(F)F)c1)NO` [Compound I-80] were, in that order, 16300 nM, 7600 nM and 338 nM.
Turning to `O=C(/C=C/c1ccc(CNC(=O)c2cc(F)c(F)c(F)c2F)cc1)NO` [Compound I-82, (E)-2,3,4,5-tetrafluoro-N-(4-(3-(hydroxyamino)-3-oxoprop-1-en-1-yl)benzyl)benzamide], the figures for the IC50 on HDAC6 and in the data set on MV-4-11 (setting [5]) were 10 to 30 nM and 590 nM, respectively.
Turning to `O=C(CCCCCCNC(=O)c1cnc(N(c2ccccc2)c2ccccc2)nc1)NO` [Ricolinostat, reference compound], in data set [1], the solubility kinetic was 26.1 ± 11.3 µM. Further, the IC50 in the data set on K562 (K562, read-out: IC50 K562) was 12800 nM; in the data set with MOLM-13 (MOLM-13, read-out: IC50 MOLM-13) it was 6490 nM; with MV-4-11 (MV4-11, read-out: IC50 MV-411), 656 nM; with HUVEC it was 4900 nM; in the data set with Normal Human Fibroblast it was 5700 nM.
